# Measured values published in patent publication US20080207650A1, “Chemical Compounds 636” (priority 2007, published 2008).
# Target: recombinant Human Phosphodiesterase B2 (PDE4B2) (Homo sapiens, UniProt Q07343)
# Experiment: Human Phosphodiesterase B2 Radiometric Assay
# Type: biochemical
# Conditions: SPA assay, 0.1 μg/mL recombinant PDE4B2, 8 nM [3H]cyclic AMP, preincubated 30 min at 30 C, reaction 20 minutes; read-out: PDE4B2 pIC50 (converted)
# Method: Human Phosphodiesterase B2 Radiometric Assay
# The assay uses recombinant Human Phosphodiesterase B2 (PDE4B2) produced in house (PrAZL0163), stored at −20° C. This assay is based on the observation that 5′AMP, the product of the reaction catalysed by PDE4, binds preferentially to yttrium silicate SPA beads (Amersham Biosciences, UK) compared to the substrate, cAMP. Compounds at the appropriate concentration were preincubated at 30 C for 30 min with an assay buffer containing 50 mM HEPES (pH 7.5), 8.3 mM MgCl2, 1.7 mM EGTA, 0.01% (w/v) Brij® 35 and 0.1 μg/mL recombinant PDE4B2. The reaction was started by the addition of [3H]cyclic AMP to give a final concentration of 8 nM, and was stopped 20 minutes after the addition of the substrate by the addition of yttrium silicate SPA beads containing 18 mM Zn SO4. Bound [3H]cyclic AMP was measured using a Topcount NXT (Packard Bioscience, UK). IC50 values (presented in Table I) were determined using Xlfit3 curve fitting, using model 205.
# recombinant Human Phosphodiesterase B2 (PDE4B2), sequence (Q07343 1-564 isoform Q07343-2): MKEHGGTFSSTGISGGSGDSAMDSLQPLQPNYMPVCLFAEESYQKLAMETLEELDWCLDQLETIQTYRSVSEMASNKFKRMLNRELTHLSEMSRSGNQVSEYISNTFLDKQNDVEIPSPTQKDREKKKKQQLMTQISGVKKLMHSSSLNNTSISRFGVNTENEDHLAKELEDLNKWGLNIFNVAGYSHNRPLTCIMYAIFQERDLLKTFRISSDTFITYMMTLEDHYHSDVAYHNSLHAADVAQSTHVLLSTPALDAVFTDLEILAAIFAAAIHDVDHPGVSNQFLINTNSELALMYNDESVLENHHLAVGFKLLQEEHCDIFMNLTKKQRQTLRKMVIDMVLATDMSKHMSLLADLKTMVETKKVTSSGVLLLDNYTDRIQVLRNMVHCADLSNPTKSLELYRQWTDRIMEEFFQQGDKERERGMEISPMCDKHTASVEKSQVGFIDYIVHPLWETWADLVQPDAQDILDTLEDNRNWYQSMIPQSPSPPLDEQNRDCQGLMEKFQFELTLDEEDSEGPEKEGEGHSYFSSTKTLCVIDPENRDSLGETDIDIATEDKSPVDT
row,SMILES,IC50 [nM]
1,"O=C(CN1CCN(C(=O)Cc2ccccc2)CC1)NC1CCC(n2c(=O)c3cc(F)cnc3n(C3CCSCC3)c2=O)CC1 (stereo not shown) [Example 24, N-[4-(9-fluoro-2,4-dioxo-5-tetrahydrothiopyran-4-yl-3,5,7-triazabicyclo[4.4.0]deca-6,8,10-trien-3-yl)cyclohexyl]-2-[4-(2-phenylacetyl)piperazin-1-yl]acetamide]",2
2,"O=C(CN1CCN(Cc2ccccc2)CC1)NC1CCC(n2c(=O)c3cc(F)cnc3n(C3CCSCC3)c2=O)CC1 (stereo not shown) [Example 10, 2-(4-benzylpiperazin-1-yl)-N-[4-(9-fluoro-2,4-dioxo-5-tetrahydrothiopyran-4-yl-3,5,7-triazabicyclo[4.4.0]deca-6,8,10-trien-3-yl)cyclohexyl]acetamide]",0.0794
3,"CN1CCN(Cc2ccc(C(=O)NC3CCC(n4c(=O)c5cc(F)cnc5n(C5CCSCC5)c4=O)CC3)cc2)CC1 (stereo not shown) [Example 6, N-[4-(9-fluoro-2,4-dioxo-5-tetrahydrothiopyran-4-yl-3,5,7-triazabicyclo[4.4.0]deca-6,8,10-trien-3-yl)cyclohexyl]-4-[(4-methylpiperazin-1-yl)methyl]benzamide]",3.16
4,"NCC1CCc2nc(C(=O)N[C@H]3CC[C@@H](n4c(=O)c5cc(F)cnc5n(C5CCSCC5)c4=O)CC3)cn2C1 (stereo partly drawn) [Example 3, 6-(aminomethyl)-N-{cis-4-[6-fluoro-2,4-dioxo-1-(tetrahydro-2H-thiopyran-4-yl)-1,4-dihydropyrido[2,3-d]pyrimidin-3(2H)-yl]cyclohexyl}-5,6,7,8-tetrahydroimidazo[1,2-a]pyridine-2-carboxamide]",6.31
